Measured values: ChEMBL document CHEMBL5579814, “Analogues of the pan-selectin antagonist rivipansel (GMI-1070)” (Eur J Med Chem, 2024)

Columns and labels:
[1] = Inhibition of horseradish peroxidase coupled sialyl Lewisa-polyacrylamide polymer binding to human P-selectin/IgG chimera measured after 2 hrs in presence of TMB by colorimetric assay
[2] = biological target: T1, E-selectin (Homo sapiens, UniProt P16581); experiment: Binding affinity to sialyl LewisX mimetic 21a pretreated Blue-NHS-labelled E-selectin Lec-EGF/SCR1/SCR2 domain (unknown origin) measured after 20 mins by microscale thermophoresis
T1 sequence (P16581 whole entry): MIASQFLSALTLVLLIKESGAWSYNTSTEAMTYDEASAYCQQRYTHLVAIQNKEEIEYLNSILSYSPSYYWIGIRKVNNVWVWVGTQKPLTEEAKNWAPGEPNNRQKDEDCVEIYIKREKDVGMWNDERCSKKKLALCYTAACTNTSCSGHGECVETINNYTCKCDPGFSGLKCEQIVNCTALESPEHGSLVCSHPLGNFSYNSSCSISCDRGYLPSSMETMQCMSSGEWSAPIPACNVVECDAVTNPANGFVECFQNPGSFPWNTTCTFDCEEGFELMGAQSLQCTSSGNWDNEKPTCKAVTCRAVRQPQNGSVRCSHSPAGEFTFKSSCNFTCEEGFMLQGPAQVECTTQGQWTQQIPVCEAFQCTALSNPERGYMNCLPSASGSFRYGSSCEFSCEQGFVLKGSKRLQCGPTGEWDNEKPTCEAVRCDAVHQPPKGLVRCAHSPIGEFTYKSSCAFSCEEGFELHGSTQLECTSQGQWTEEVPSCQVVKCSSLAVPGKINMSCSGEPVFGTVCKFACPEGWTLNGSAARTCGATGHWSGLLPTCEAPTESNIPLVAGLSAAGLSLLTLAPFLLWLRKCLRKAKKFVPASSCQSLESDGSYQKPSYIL

[3] = biological target: T1, E-selectin; experiment: Binding affinity to E-selectin SCR2 domain (unknown origin) by isothermal titration calorimetry

Row | SMILES | IC50 [1] | Kd [2] | Kd [3]
1 | CC[C@@H]1[C@@H](O[C@@H]2O[C@@H](C)[C@@H](O)[C@@H](O)[C@@H]2O)[C@H](O[C@@H]2O[C@H](CO)[C@H](O)[C@H](O[C@@H](CC3CCCCC3)C(=O)O)[C@H]2OC(=O)c2ccccc2)CC[C@@H]1C(=O)NCCCc1cn(CCC(=O)Nc2cc(S(=O)(=O)O)cc3cc(S(=O)(=O)O)cc(S(=O)(=O)O)c23)nn1 | 94 µM |  | 
2 | CO[C@@H]1O[C@H](CO)[C@@H](O[C@@H]2O[C@H](CO)[C@H](O)[C@H](O[C@]3(C(=O)O)C[C@H](O)[C@@H](NC(C)=O)[C@H]([C@H](O)[C@H](O)CO)O3)[C@H]2O)[C@H](O[C@@H]2O[C@@H](C)[C@@H](O)[C@@H](O)[C@@H]2O)[C@H]1NC(C)=O | ≥ 7000 µM | 738 µM | 
3 | C[C@@H]1O[C@@H](O[C@@H]2[C@@H](NC(=O)c3cc(=O)[nH]c(=O)[nH]3)C[C@@H](C(=O)NCCNC(=O)COCCOCC(=O)Nc3cc(S(=O)(=O)O)cc4cc(S(=O)(=O)O)cc(S(=O)(=O)O)c34)C[C@H]2O[C@@H]2O[C@H](CO)[C@H](O)[C@H](O[C@@H](CC3CCCCC3)C(=O)O)[C@H]2OC(=O)c2ccccc2)[C@@H](O)[C@H](O)[C@@H]1O [RIVIPANSEL] | 423 µM |  | 
4 | CC[C@H]1C(C(=O)NCCCc2cn(CCCCC(=O)Nc3cc(S(=O)(=O)O)cc4cc(S(=O)(=O)O)cc(S(=O)(=O)O)c34)nn2)CC[C@@H](O[C@@H]2O[C@H](CO)[C@H](O)[C@H](O[C@@H](CC3CCCCC3)C(=O)O)[C@H]2OC(=O)c2ccccc2)[C@@H]1O[C@@H]1O[C@@H](C)[C@@H](O)[C@@H](O)[C@@H]1O (stereo partly drawn) | 210 µM |  | 
5 | COC(=O)[C@@H]1C[C@H](NC(=O)c2cc(=O)[nH]c(=O)[nH]2)[C@@H](O[C@@H]2O[C@@H](C)[C@@H](O)[C@@H](O)[C@@H]2O)[C@H](O[C@@H]2O[C@H](CO)[C@H](O)[C@H](O[C@@H](CC3CCCCC3)C(=O)O)[C@H]2OC(=O)c2ccccc2)C1 | 3390 µM |  | 
6 | C[C@@H]1O[C@@H](O[C@@H]2CCCC[C@H]2O[C@@H]2O[C@H](CO)[C@H](O)[C@H](O[C@@H](CC3CCCCC3)C(=O)O)[C@H]2O)[C@@H](O)[C@H](O)[C@@H]1O |  |  | 60.7 µM
7 | CC[C@H]1C(C(=O)NCCCc2cn(CCCC(=O)Nc3cc(S(=O)(=O)O)cc4cc(S(=O)(=O)O)cc(S(=O)(=O)O)c34)nn2)CC[C@@H](O[C@@H]2O[C@H](CO)[C@H](O)[C@H](O[C@@H](CC3CCCCC3)C(=O)O)[C@H]2OC(=O)c2ccccc2)[C@@H]1O[C@@H]1O[C@@H](C)[C@@H](O)[C@@H](O)[C@@H]1O (stereo partly drawn) | 82 µM |  | 
